Laboratory results: PubChem BioAssay AID2581 (Johns Hopkins Ion Channel Center, 2010)
pIC50: −log10 of the molar value. Active and inactive are the calls of the source.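 Rule for the calls: active = any inhibition of Kir2.1 potassium channel current, measured at -100 mV, at any tested dose; inactive = no inhibition seen at any dose.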

Target: Inward rectifier potassium channel 2 (Mus musculus) (UniProt P35561)
Assay: mouse Kir2.1 channel blockers, dose response, orthogonal assay for Kir2.1 inhibitor project, cell-based, automated electrophysiology, IonWorks patch clamp (AID 2581)
Conditions: Kir2.1 cell line, IonWorks patch clamp current at -100 mV

Chain of Inward rectifier potassium channel 2 (Mus musculus) (P35561 whole entry, looked up): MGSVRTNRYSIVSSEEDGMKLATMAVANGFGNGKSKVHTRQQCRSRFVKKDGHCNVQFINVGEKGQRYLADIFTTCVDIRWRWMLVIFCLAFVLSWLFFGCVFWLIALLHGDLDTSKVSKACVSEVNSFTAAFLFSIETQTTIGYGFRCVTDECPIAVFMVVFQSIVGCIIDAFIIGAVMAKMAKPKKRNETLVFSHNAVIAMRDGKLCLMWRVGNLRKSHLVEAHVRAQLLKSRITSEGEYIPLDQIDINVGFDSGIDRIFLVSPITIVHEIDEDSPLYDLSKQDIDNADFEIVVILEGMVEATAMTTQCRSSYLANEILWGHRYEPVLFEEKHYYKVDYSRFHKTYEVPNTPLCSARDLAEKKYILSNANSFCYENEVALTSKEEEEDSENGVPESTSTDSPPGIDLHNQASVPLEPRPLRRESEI

SMILES | pIC50
COc1ccc(CNCc2ccc(OC)cc2)cc1 | 4.87
COc1ccc(CNCc2ccc(Cl)cc2)cc1 | 4.94
COc1ccc(CNCc2ccc(C(C)(C)C)cc2)cc1 | 4.85
COc1ccc(CNCc2ccc(OC(F)(F)F)cc2)cc1 | 4.62
COc1ccc(CNCc2ccc(OC)c(Cl)c2)cc1 | 5.29
COc1ccc(CNCc2cccc(Cl)c2)cc1 | 5.05
COc1ccc(CNCc2ccc3ccccc3c2)cc1 | 5.01
COc1ccc(CNC2CCCc3ccccc32)cc1 (centres undefined) | 5.04
COc1ccc(CNCc2ccccc2C)cc1 | 4.78
COc1ccc(CNCc2ccc(C)cc2)cc1 | 5.10

Continued, values first:

pIC50 | SMILES
4.74 | COc1ccccc1CNCc1cccc2ccccc12
4.63 | COc1ccc(CNCc2ccc(OC)c3ccccc23)cc1OC
4.63 | COc1cccc(CNCc2cccc3ccccc23)c1
4.69 | COc1ccc(CNCc2ccc(OC)c3ccccc23)cc1
4.64 | COc1ccc(CNCc2cccc3ccccc23)cc1OC
4.55 | COc1ccc(CNCc2cccc3ccccc23)c(OC)c1

Same assay, conditions: Kir2.1 cell line, IonWorks patch clamp current at -100 mV; at 30 µM (top of the series)

SMILES | channel activity, lower = inhibition
COc1cc(CN(C)Cc2cccc3ccccc23)c([N+](=O)[O-])cc1OC | inactive
COc1ccc(CNCc2cccnc2)cc1 | inactive
COc1ccc(CNC(C)c2cccc3ccccc23)cc1 (centres undefined) | inactive
COc1ccc(CNCc2ccccc2)cc1 | inactive
COc1ccc(COCc2cccc3ccccc23)cc1 | inactive
COc1ccc(CNCc2ccccn2)cc1 | inactive
COc1ccc(C(C)NCc2cccc3ccccc23)cc1 (centres undefined) | inactive
COc1ccc(CNC(=O)c2cccc3ccccc23)cc1 | inactive
COc1ccc(C(=O)NCc2cccc3ccccc23)cc1 | inactive
Fc1cccc(CNCc2cccc3ccccc23)c1F | inactive
FC(F)(F)Oc1ccc(CNCc2cccc3ccccc23)cc1 | inactive
COc1ccc(CNCc2ccncc2)cc1 | inactive
COc1cc(CN(C)Cc2cccc3ccccc23)ccc1OCc1ccccc1 | inactive

Second part, the molecule after the results:

channel activity, lower = inhibition | SMILES
inactive | Clc1ccc(CNCc2cccc3ccccc23)c(Cl)c1
inactive | COc1cc(Br)c(CN(C)Cc2cccc3ccccc23)cc1OC
inactive | Clc1ccc(CNCc2cccc3ccccc23)cc1
inactive | Clc1cccc(CNCc2cccc3ccccc23)c1
inactive | CC(C)(C)c1ccc(CNCc2cccc3ccccc23)cc1
